Measured values as given in patent US7919510B2 (priority 2005, dated 2011).

Assays:
[1] = molecular target: human endothelial constitutive NOS (eNOS) (Homo sapiens, UniProt P29474); assay: biochemical; settings: read-out: h-eNOS IC50
[2] = human, open pilot study; cited from earlier work

| IC50 [1] [µM] | Compound | patients with a reduction in the frequency of migraine attack of 50% [2] [%] |
| --- | --- | --- |
| 6.66 | CN1CCC(n2cnc3cc(NC(=N)c4cccs4)ccc32)CC1 [Compound 59] |  |
|  | C/C1=C2/[N-][C@H]([C@H](CC(N)=O)[C@@]2(C)CCC(=O)NC[C@@H](C)OP(=O)([O-])O[C@H]2[C@@H](O)[C@@H](n3cnc4cc(C)c(C)cc43)O[C@@H]2CO)[C@]2(C)N=C(/C(C)=C3N=C(/C=C4N=C1[C@@H](CCC(N)=O)C\4(C)C)[C@@H](CCC(N)=O)[C@]\3(C)CC(N)=O)[C@@H](CCC(N)=O)[C@]2(C)CC(N)=O.[Co+3].[OH-] [hydroxycobalamin] | 53 |
